{
  "source": "patent US20040191214A1",
  "about": "“Nucleoside vaccine adjuvants” (priority 2001, published 2004)",
  "origin": "cited, not measured here",
  "system": "lymphocyte",
  "conditions": "stated as known; see U.S. Pat. Nos. 6,130,326, 6,063,772, 5,767,097 to Tam",
  "data": [
    {"smiles": "NC(=O)c1ncn([C@@H]2O[C@H](CO)[C@@H](O)[C@H]2O)n1", "note": "[Ribavirin, 1-beta-D-ribofuranosyl-1,2,4-triazole-3-carboxamide]", "values": [
      {"measurement": "stimulation of Type 1 or Type 2 (cytokine) response", "result": "stimulate a Type 1 response"}
    ]},
    {"smiles": "NC(=O)c1ncn([C@H]2O[C@@H](CO)[C@H](O)[C@@H]2O)n1", "note": "[Levovirin, 1-beta-L-ribofuranosyl-1,2,4-triazole-3-carboxamide]", "values": [
      {"measurement": "stimulation of Type 1 or Type 2 (cytokine) response", "result": "stimulate a Type 1 response"}
    ]},
    {"smiles": "N=C(N)c1ncn([C@@H]2O[C@H](CO)[C@@H](O)[C@H]2O)n1", "note": "[Viramidine, 1-beta-D-ribofuranosyl-1,2,4-triazole-3-carboxamidine]", "values": [
      {"measurement": "stimulation of Type 1 or Type 2 (cytokine) response", "result": "stimulate a Type 1 response"}
    ]},
    {"smiles": "Cl.N=C(N)c1cn([C@@H]2O[C@H](CO)[C@@H](O)[C@H]2O)c2nc[nH]c(=O)c12", "note": "[7-(β-D-ribofuranosyl)pyrrolo[2,3-d]4-pyrimidone-5-carboxamidine*HCl]", "values": [
      {"measurement": "stimulation of Type 1 or Type 2 (cytokine) response", "result": "stimulate a Type 2 response"}
    ]}
  ]
}
